Experimental data published in patent US10017492B2 (KANGPU BIOPHARMACEUTICALS, LTD., priority 2014, dated 2018).
Where two headings read alike, the source gives them in different places.

Columns and labels:
TNF-α = TNF-α activity inhibiting assay (LPS-stimulated peripheral blood, ELISA); type: cell-based, human; conditions: Homo sapiens, compound 100 nM, diluted peripheral blood of healthy volunteers, LPS 10 ng/mL, 6 hours, read-out: Inhibitory Rate on TNF-α (%)
How it was run: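 Human whole blood (EDTA), diluted 5-fold in RPMI 1640, pre-incubated 60 min at 37 °C with compound at 100 nM final (0.2% DMSO), then stimulated 6 h with 10 ng/mL LPS. Supernatant TNF-α measured by ELISA (OD450); inhibition relative to 0.2% DMSO control.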

[1] = tested on: MM.1S cells (myeloma cells); assay: Cell proliferation assay (MTS), MM.1S myeloma cells; type: cell-based; conditions: Homo sapiens, MM1.S, 72 hours, read-out: IC50 values of MMIS Inhibition
How it was run: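 MM.1S myeloma cells were seeded at 1.8×10^3 per well in RPMI and rested 24 hours before 72 hours of compound exposure at 37° C., 5% CO2, with final DMSO at 0.5%. Viability was read by MTS at OD490 nm, using OD650 nm as reference. IC50 came from variable-slope curves, with the 0.5% DMSO control set as 0% inhibition.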

[2] = tested on: WSU-DLCL-2 cells (diffuse large B cell lymphoma cells); assay: CTG cell proliferation assay, WSU-DLCL-2 cells; type: cell-based; conditions: 72-120 hours, CellTiter-Glo, read-out: IC50 Value of WSU-DLCL2 Inhibition
Experimental: (§1) CTG Cell Proliferation Assay
(§2) Rec-1 cells (Mantle cell lymphoma cells) (ATCC, catalog number CRL-3004), Namalwa.CSN/70 cells (Burkitt lymphoma cells) (DSMZ, catalog number ACC-70), and WSU-DLCL-2 cells (diffuse large B cell lymphoma cells) (DSMZ, catalog number ACC-575) were seeded at (5-15)×10^3 per well to a 96-well plate with transparent bottom and white wall (Corning, catalog number CLS3903) containing specific medium. The plate was placed in an incubator and incubated for 24 hours at 37° C. under 5% CO2. Compounds were prepared as 150 mM stock solutions with DMSO (Sigma, catalog number 276855), and were diluted with the medium to the desired concentration (the final concentration of DMSO was 0.2%) and then were added to each well, incubated in an incubator for 72-120 hours at 37° C. under 5% CO2. Then, 100 μl CellTiter-Glo® cell activity assay reagent (Promega, catalog number G7570) was added to each well. Mixing proceeded for 10 minutes on a shaker to induce cytolysis. The 96-well plate was placed at room temperature for 10 minutes to make the luminous signal stable. A white base film was pasted at the bottom of the culture plate. EnSpire was used to test the plate.

[3] = tested on: Rec-1 cells (Mantle cell lymphoma cells); assay: CTG cell proliferation assay, Rec-1 cells; type: cell-based; conditions: Homo sapiens, Rec1, 72-120 hours, CellTiter-Glo, read-out: IC50 Value of Rec-1 Inhibition
Experimental: as §1, §2

[4] = tested on: Namalwa.CSN/70 cells (Burkitt lymphoma cells); assay: CTG cell proliferation assay, Namalwa.CSN/70 cells; type: cell-based; conditions: 72-120 hours, CellTiter-Glo, read-out: IC50 Value of Namalwa.CSN/70 Inhibition
Experimental: as §1, §2

[5] = Homo sapiens, WSUDLCL2, WSU-DLCL-2 cells

IC50 [1] [nM] | IC50 [2, 5] [nM] | IC50 [3] [nM] | IC50 [4] [nM] | IC50 ([2]; WSU-DLCL-2 cells) [nM] | Compound | inhibition at 0.1 µM (TNF-α) [%]
< 300 | 401 to 300000 | < 100 | > 300000 | – | [2H][C@]1(N2Cc3c(OCc4cc(CN5CCOCC5)ccc4F)cccc3C2=O)CCC(=O)NC1=O [Compound A403, (S)-3-deuterium-3-(4-((2-fluoro-5-(morpholinomethyl)benzyl)oxy)-1-oxoisoindolin-2-yl)piperidine-2,6-dione] | ≥ 50
< 300 | > 300000 | < 100 | 401 to 300000 | – | COc1ccc(COc2cccc3c2CN(C2CCC(=O)NC2=O)C3=O)c(F)c1 (centres unmarked) [Compound A329, 3-(4-((2-fluoro-4-methoxybenzyl)oxy)-1-oxoisoindolin-2-yl)piperidine-2,6-dione] | ≥ 50
< 300 | > 300000 | < 100 | > 300000 | – | COc1cccc(COc2cccc3c2CN(C2CCC(=O)NC2=O)C3=O)c1F (centres unmarked) [Compound A334, 3-(4-((2-fluoro-3-methoxybenzyl)oxy)-1-oxoisoindolin-2-yl)piperidine-2,6-dione] | ≥ 50
< 300 | 401 to 300000 | < 100 | 100 to 400 | – | [2H][C@]1(N2Cc3c(NCc4cccc(OC)c4F)cccc3C2=O)CCC(=O)NC1=O [Compound A357, (S)-3-deuterium-3-(4-((2-fluoro-3-methoxybenzyl)amino)-1-oxoisoindolin-2-yl)piperidine-2,6-dione] | ≥ 50
< 300 | 401 to 300000 | < 100 | > 300000 | – | O=C1CCC(N2Cc3c(NCc4cccc(CN5CCOCC5)c4F)cccc3C2=O)C(=O)N1 (centres unmarked) [Compound A381, 3-(4-((2-fluoro-3-(morpholinomethyl)benzyl)amino)-1-oxoisoindolin-2-yl)piperidine-2,6-dione] | ≥ 50
≥ 300 | > 300000 | 100 to 400 | > 300000 | – | [2H][C@@]1(N2Cc3c(N)cc(F)cc3C2=O)CCC(=O)NC1=O [Compound I-32] | > 50
< 300 | 401 to 300000 | < 100 | > 300000 | – | [2H][C@]1(N2Cc3c(N)cc(F)cc3C2=O)CCC(=O)NC1=O [Compound I-31] | > 50
< 300 | < 100 | < 100 | > 300000 | – | [2H][C@]1(N2Cc3c(NCc4ccc(CN5CCOCC5)cc4F)cccc3C2=O)CCC(=O)NC1=O [Compound A402] | ≥ 50
< 300 | 401 to 300000 | 100 to 400 | > 300000 | – | O=C1CCC(N2Cc3c(NCc4cc(CN5CCOCC5)ccc4F)cccc3C2=O)C(=O)N1 (centres unmarked) [Compound A383, 3-(4-((2-fluoro-5-(morpholinomethyl)benzyl)amino)-1-oxoisoindolin-2-yl)piperidine-2,6-dione] | ≥ 50
< 300 | 401 to 300000 | < 100 | > 300000 | – | [2H][C@]1(N2Cc3c(OCc4cccc(CN5CCOCC5)c4F)cccc3C2=O)CCC(=O)NC1=O [Compound A404, (S)-3-deuterium-3-(4-((2-fluoro-3-(morpholinomethyl)benzyl)oxy)-1-oxoisoindolin-2-yl)piperidine-2,6-dione] | ≥ 50
< 300 | – | < 100 | > 300000 | 401 to 300000 | [2H]C1(N2Cc3c(OCc4ccc(CN5CC(C)OC(C)C5)cc4F)cccc3C2=O)CCC(=O)NC1=O (centres unmarked) [Compound A427, 3-deuterium-3-(4-((4-((2,6-dimethylmorpholino)methyl)-2-fluorobenzyl)oxy)-1-oxoisoindolin-2-yl)piperidine-2,6-dione] | ≥ 50
< 300 | 401 to 300000 | < 100 | > 300000 | – | O=C1CCC(N2Cc3c(OCc4cccc(CN5CCOCC5)c4F)cccc3C2=O)C(=O)N1 (centres unmarked) [Compound A399, 3-(4-((2-fluoro-3-(morpholinomethyl)benzyl)oxy)-1-oxoisoindolin-2-yl)piperidine-2,6-dione] | ≥ 50
< 300 | > 300000 | < 100 | > 300000 | – | Nc1cc(F)cc2c1CN(C1CCC(=O)NC1=O)C2=O (centres unmarked) [Compound I-28, 3-(4-amino-6-fluoro-1-oxoisoindolin-2-yl)piperidine-2,6-dione] | > 50
